Test results: patent publication US11738031B2, “Compositions and methods for preventing or treating muscle conditions” (The Board of Trustees of the Leland Stanford Junior …, priority 2017, dated 2023)
Entries after “also recorded” stand apart in the source; their conditions may differ.

How the values were obtained:
[1] = test system: muscle stem cells (MuSCs); experiment: MuSC proliferation in culture, cell number count (hemocytometer); assay type: cell-based, mouse; details: ONO-AE3-208 1 μM with PGE2 10 ng/ml, 24 hr treatment
Method: (§1) Muscle stem cell culture, treatment and lentiviral infection: Following isolation, we resuspended MuSCs in myogenic cell culture medium containing DMEM/F10 (50:50), 15% FBS, 2.5 ng ml^−1 fibroblast growth factor-2 (FGF-2 also known as bFGF) and 1% penicillin-streptomycin. We seeded MuSC suspensions at a density of 500 cells per cm^2 surface area. We maintained cell cultures at 37° C. in 5% CO2 and changed medium daily. For PGE2, 15-PGDH inhibitor and EP4 receptor antagonist treatment studies, we added 1-200 ng/ml Prostaglandin E2 (Cayman Chemical) (unless specified in the figure legends, 10 ng/ml was the standard concentration used), and/or 1 μM EP4 antagonist (ONO-AE3-208, Cayman Chemical), or 1 μM 15-PGDH inhibitor (SW033291, Cayman Chemical) to the MuSCs cultured on collagen coated dishes for the first 24 h. The cells were then trypsinized and cells reseeded onto hydrogels for an additional 6 days of culture. All treatments were compared to their solvent (DMSO) vehicle control. For stripped serum assays, we resuspended isolated MuSCs in medium containing DMEM/F10 (50:50), 15% charcoal stripped FBS (Gibco, cat #12676011), 2.5 ng ml^−1 bFGF and 1% penicillin-streptomycin. […]
Proliferation assays: To assay proliferation, we used three different assays (hemocytometer, VisionBlue, and EdU). […] For hemocytometer cell number count, we collected cells at indicated timepoints by incubation with 0.5% trypsin in PBS for 5 min at 37° C. and quantified them using a hemocytometer at least 3 times. Additionally, we used the VisionBlue Quick Cell Viability Fluorometric Assay Kit (BioVision, catalog #K303) as a readout for cell growth in culture. Briefly, we incubated MuSCs with 10% VisionBlue in culture medium for 3 h, and measured fluorescence intensity on a fluorescence plate reader (Infinite M1000 PRO, Tecan) at Ex=530-570 nm, Em=590-620 nm. […] We quantified EdU positive cells using the MetaMorph Image Analysis software (Molecular Devices). Data analyses were blinded, where researchers performing cell scoring were unaware of the treatment condition given to sample groups analyzed. […]

[2] = test system: aged MuSCs; experiment: Aged MuSC proliferation in culture; assay type: cell-based, mouse; details: PGE2 10 ng/ml or SW033291 1 μM, 24 hr, assayed at day 7
Method: as §1
Proliferation assays: To assay proliferation, we used three different assays (hemocytometer, VisionBlue, and EdU). […] For hemocytometer cell number count, we collected cells at indicated timepoints by incubation with 0.5% trypsin in PBS for 5 min at 37° C. and quantified them using a hemocytometer at least 3 times. Additionally, we used the VisionBlue Quick Cell Viability Fluorometric Assay Kit (BioVision, catalog #K303) as a readout for cell growth in culture. Briefly, we incubated MuSCs with 10% VisionBlue in culture medium for 3 h, and measured fluorescence intensity on a fluorescence plate reader (Infinite M1000 PRO, Tecan) at Ex=530-570 nm, Em=590-620 nm. […] We quantified EdU positive cells using the MetaMorph Image Analysis software (Molecular Devices). Data analyses were blinded, where researchers performing cell scoring were unaware of the treatment condition given to sample groups analyzed.

[3] = test system: endogenous MuSCs in TA muscle; experiment: Endogenous MuSC BLI in Pax7CreERT2;Rosa26-LSL-Luc mice after cardiotoxin injury; assay type: in vivo, mouse; details: single indomethacin injection three days post-cardiotoxin injury
Method: Bioluminescence imaging: We performed bioluminescence imaging (BLI) using a Xenogen-100 system, as previously described^1,5,6. Briefly, we anesthetized mice using isofluorane inhalation and administered 120 μL D-luciferin (0.1 mmol kg^−1, reconstituted in PBS; Caliper LifeSciences) by intraperitoneal injection. We acquired BLI using a 60 s exposure at F-stop=1.0 at 5 minutes after luciferin injection. Digital images were recorded and analyzed using Living Image software (Caliper LifeSciences). We analyzed images with a consistent region-of-interest (ROI) placed over each hindlimb to calculate a bioluminescence signal. We calculated a bioluminescence signal in radiance (p s^−1 cm^−2 sr^−1) value of 10^4 to define an engraftment threshold. This radiance threshold of 10^4 is approximately equivalent to the total flux threshold in p/s reported previously. This BLI threshold corresponds to the histological detection of one or more GFP+ myofibers^1,5,6. We performed BLI imaging every week after transplantation. […]
We performed bioluminescence imaging (BLI) using a Xenogen-100 system, as previously described (24, 26, 27, 30). […] Digital images were recorded and analyzed using Living Image software (Caliper LifeSciences). We analyzed images with a consistent region-of-interest (ROI) placed over each hindlimb to calculate a bioluminescence signal. We calculated a bioluminescence signal in radiance (p s^−1 cm^−2 sr^−1) value of 10^4 to define an engraftment threshold. […]
Bioluminescent Imaging: For bioluminescence imaging (BLI), we anesthetized mice using isofluorane inhalation and administered 120 μL D-luciferin (0.1 mmol kg^−1, reconstituted in PBS; Caliper LifeSciences) by intraperitoneal injection. […] Digital images were recorded and analyzed using Living Image software (Caliper LifeSciences). We analyzed images with a consistent region-of-interest (ROI) placed over each hindlimb to calculate a bioluminescence signal. We calculated a bioluminescence signal in radiance (p s^−1 cm^−2 sr^−1) value of 10^4 to define an engraftment threshold. […]

[4] = test system: TA muscle; experiment: In vivo muscle force at day 14 post-injury (TA); design: species or system mouse
Method: We used an injury model entailing intramuscular injection of 10 μl of notexin (10 μg ml^−1; Latoxan, catalog #L8104) or cardiotoxin (10 μM; Latoxan, catalog #L8102) into the Tibialis anterior (TA) muscle. For cryoinjury, an incision was made in the skin overlying the TA muscle and a copper probe, chilled in liquid nitrogen, was applied to the TA muscle for three 10 s intervals, allowing the muscle to thaw between each application of the cryoprobe. When indicated, 48 hr after injury either 16,16-Dimethyl Prostaglandin E2 (dmPGE2) (13 nmol, Tocris, catalog #4027), Indomethacin (35 μg, Sigma, catalog #17378) or vehicle control (PBS) was injected into the TA muscle. The contralateral TA was used as an internal control, except for the force measurement experiments where each mouse had both legs injured with the same condition and independent mice were used for each condition.
Mice were injured as described in the Muscle injury section. […] Data were collected with a PCI-6251 acquisition card (National Instruments) and analyzed in Matlab. We calculated specific force values by normalizing the force measurements by the muscle physiological cross-sectional areas (PCSAs), which were similar between groups. PCSA (measured in mm^2) was calculated according to the following equation (55): PCSA (mm^2)=[mass (g)×Cos θ]÷[ρ (g/mm^3)×fiber length (mm)], […]

[5] = test system: PGE2 levels of conditioned medium from isolated fibers; experiment: PGE2 ELISA of conditioned medium from isolated fibers; assay type: cell-based, mouse; details: indomethacin 1 μM, 24 hours
Method: For conditioned medium assays, muscle fibers from the extensor digitorum longus (EDL) were isolated as previously described (53). Fibers were cultured in stripped serum medium in the presence or absence of indomethacin (1 μM, Sigma) for 24 hours. Conditioned medium was collected and measured using the PGE2 ELISA Kit (R&D Systems, catalog #KGE004B) and expressed relative to the collected volume (ml). Each sample was assayed in triplicate and in two independent experiments. […]

CC(C(=O)Nc1cc(C#N)ccc1CCCC(=O)O)c1ccc(F)c2ccccc12 (stereo not drawn) [ONO-AE3-208]
proliferation induced by PGE2 in the presence of EP4 antagonist [1]: blunted

CCCC[S+]([O-])c1sc2nc(-c3cccs3)cc(-c3ccccc3)c2c1N (stereo not drawn) [SW033291]
aged MuSC proliferation and Pax7 expression after 1-day pulse [2]: characteristic increase in proliferation and maintenance of Pax7 expression

COc1ccc2c(c1)c(CC(=O)O)c(C)n2C(=O)c1ccc(Cl)cc1 [indomethacin]
luciferase activity (BLI) of endogenous MuSCs after indomethacin [3]: significant decrease in luciferase activity; also recorded: decline in BLI relative to controls
reduction in twitch force compared to controls ([4]; NSAID (indomethacin) treatment, day 14 post-cardiotoxin): 33±7%
Twitch force vs control group ([4]; indomethacin into cardiotoxin-injured muscles, day 14 post-injury): significant loss in Twitch force
PGE2 synthesis by isolated myofibers [5]: markedly reduced
